For the assay, the target named is T1, human PPARgamma (Homo sapiens, UniProt P37231).
T1 construct: amino acids 1152-Y475; expressed in transfected cells; host or cells: HEK (human embryonic kidney) cells, transiently transfected with pcDNA3-GAL4-humanPPARgammaLBD
T1 sequence (P37231 182-477 isoform P37231-2 limits assumed): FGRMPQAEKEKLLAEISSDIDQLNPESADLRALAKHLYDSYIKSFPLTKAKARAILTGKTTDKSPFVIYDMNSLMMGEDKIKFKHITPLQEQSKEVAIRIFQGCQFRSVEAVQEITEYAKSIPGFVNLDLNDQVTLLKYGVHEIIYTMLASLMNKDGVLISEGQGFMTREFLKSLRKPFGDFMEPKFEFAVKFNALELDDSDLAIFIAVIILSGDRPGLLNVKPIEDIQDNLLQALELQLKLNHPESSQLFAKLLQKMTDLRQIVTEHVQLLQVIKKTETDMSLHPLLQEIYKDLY
Kind of assay: cellular PPARgamma assay (transiently transfected HEK cells, luciferase reporter). The assay is classed as cell-based. The source says:
A transient transfection system is employed to determine the cellular PPARgamma activity of PPAR agonists. It is based on the use of a luciferase reporter plasmid (pGL3basic-5xGAL4-TK) and of a PPARgamma expression plasmid (pcDNA3-GAL4-humanPPARgammaLBD). Both plasmids are transiently transfected into human embryonic kidney cells (HEK cells). There is then expression in these cells of the fusion protein GAL4-humanPPARgammaLBD which binds to the GAL4 binding sites of the reporter plasmid. In the presence of a PPARgamma-active ligand, the activated fusion protein GAL4-humanPPARgammaLBD induces expression of the luciferase reporter gene, which can be detected in the form of a chemiluminescence signal after addition of a luciferase substrate. As a difference from the stably transfected PPARalpha reporter cell line, in the cellular PPARgamma assay the two components (luciferase reporter plasmid and PPARgamma expression plasmid) are transiently transfected into HEK cells because stable and permanent expression of the PPARgamma fusion protein is cytotoxic.
The luciferase reporter plasmid pGL3basic-5xGAL4-TK is based on the vector pGL3basic from Promega. The reporter plasmid is prepared by cloning five binding sites of the yeast transcription factor GAL4 (each binding site with the sequence 5′-CTCGGAGGACAGTACTCCG-3′), together with a 160 bp-long thymidine kinase promoter section (Genbank Accession #AF027128) 5′-upstream into pGL3basic. 3′-downstream of the thymidine kinase promoter is the complete luciferase gene from Photinus pyralis (Genbank Accession #M15077) which is already a constituent of the plasmid pGL3basic used. The cloning and sequencing of the reporter plasmid pGL3basic-5xGAL4-TK took place in analogy to the description in Sambrook J. et. al. (Molecular cloning, Cold Spring Harbor Laboratory Press, 1989).
The PPARgamma expression plasmid pcDNA3-GAL4-humanPPARgammaLBD was prepared by first cloning the cDNA coding for amino acids 1-147 of the yeast transcription factor GAL4 (Genbank Accession #P04386) into the plasmid pcDNA3 (from Invitrogen) 3′-downstream of the cytomegalovirus promoter. Subsequently, the cDNA of the ligand-binding domain (LBD) of the human PPARgamma receptor (amino acids […]; Accession #g1480099) 3′-downstream of the GAL4 DNA binding domain. Cloning and sequencing of the PPARgamma expression plasmid pcDNA3-GAL4-humanPPARgammaLBD again took place in analogy to the description in Sambrook J. et. al. (Molecular cloning, Cold Spring Harbor Laboratory Press, 1989). Besides the luciferase reporter plasmid pGL3basic-5xGAL4-TK and the PPARgamma expression plasmid pcDNA3-GAL4-humanPPARgammaLBD, also used for the cellular PPARgamma assay are the reference plasmid pRL-CMV (from Promega) and the plasmid pBluescript SK(+) from Stratagene. All four plasmids were prepared using a plasmid preparation kit from Qiagen, which ensured a plasmid quality with a minimal endotoxin content, before transfection into HEK cells.
The activity of PPARgamma agonists was then determined in a 4-day assay which is described below. Before the transfection, HEK cells are cultivated in DMEM (#41965-039, Invitrogen) which is mixed with the following additions: 10% FCS (#16000-044, Invitrogen), 1% penicillin-streptomycin solution (#15140-122, Invitrogen) and 2 mM L-glutamine (#25030-024, Invitrogen).
Firstly, solution A, a transfection mixture which contains all four plasmids previously described in addition to DMEM, is prepared. The following amounts are used to make up 3 ml of solution A for each 96 well microtiter plate for an assay: 2622 μl of antibiotic- and serum-free DMEM (#41965-039, Invitrogen), 100 μl of reference plasmid pRL-CMV (1 ng/μl), 100 μl of luciferase reporter plasmid pGL3basic-5xGAL4-TK (10 ng/μl), 100 μl of PPARgamma expression plasmid pcDNA3-GAL4-humanPPARgammaLBD (100 ng/μl) and 78 μl of plasmid pBluescript SK(+) (500 ng/μl). […]
For orientation: EC50 means the concentration at which the effect is half-maximal. `COc1ccc2c(COc3ccc(S(=O)(=O)Nc4nnc(C(C)C)s4)cc3)coc2c1` [Example 3, N-(5-Isopropyl-[1,3,4]thiadiazol-2-yl)-4-(6-methoxy-benzofuran-3-ylmethoxy)-benzenesulfonamide] yielded an EC50 of 460 nM.
The value for `CC(C)c1nnc(NS(=O)(=O)c2ccc(OCc3ccc(Oc4ccc(C(F)(F)F)cc4)cc3)cc2)s1` [Example 4, N-(5-Isopropyl-[1,3,4]thiadiazol-2-yl)-4-[4-(4-trifluoromethyl-phenoxy)-benzyloxy]-benzenesulfonamide] was 460 nM.
As for `CCc1oc(-c2cccc(C(F)(F)F)c2)nc1COc1ccc(S(=O)(=O)Nc2nnc(C(C)C)s2)cc1` [Example 14, 4-[5-Ethyl-2-(3-trifluoromethyl-phenyl)-oxazol-4-ylmethoxy]-N-(5-isopropyl-[1,3,4]thiadiazol-2-yl)-benzenesulfonamide], the figure is 1 nM; as for `COc1ccc(-c2nc(COc3ccc(S(=O)(=O)Nc4nnc(C(C)C)s4)cc3)no2)cc1` [Example 9, N-(5-Isopropyl-[1,3,4]thiadiazol-2-yl)-4-[5-(4-methoxy-phenyl)-[1,2,4]oxadiazol-3-ylmethoxy]-benzenesulfonamide], 50 nM; as for `COc1ccc(-c2nc(COc3ccc(S(=O)(=O)Nc4nnc(C(C)C)s4)cc3)co2)cc1` [Example 13, N-(5-Isopropyl-[1,3,4]thiadiazol-2-yl)-4-[2-(4-methoxy-phenyl)-oxazol-4-ylmethoxy]-benzenesulfonamide], 1970 nM.
In turn, `Cc1nc(-c2ccc(C(F)(F)F)cc2)sc1COc1ccc(S(=O)(=O)Nc2nnc(C(C)C)s2)cc1` [Example 1, N-(5-Isopropyl-[1,3,4]thiadiazol-2-yl)-4-[4-methyl-2-(4-trifluoromethyl-phenyl)-thiazol-5-ylmethoxy]-benzenesulfonamide] displayed an EC50 of 50 nM. This EC50 lies about 39-fold lower than the previous one.
